Results on 25 molecules are retold here after PubChem BioAssay AID248 (DTP/NCI, 2004).

Where “and” joins values, the source holds several entries; their conditions need not be identical. Equal values may be shown once. Inconclusive results and toxic doses are left out.

This experiment has as its system L1210 leukemia ip in BDF1 mice, survival T/C. The experiment can be described thus: NCI In Vivo Anticancer Drug Screen. Data for tumor model L1210 Leukemia (intraperitoneal) in B6D2F1 (BDF1) mice. Particulars: endpoint: mean survival time, higher = longer survival. In outline: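 Transplanted-tumor mice were given test agent; controls received vehicle only. Survival readings from the two groups were divided (treated over control).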

[1] abbreviates: dose: 50.0 mg/kg/injection, schedule: Q01DX009 (ip), vehicle: saline with Tween-80.
Setting [2] is: dose: 100.0 mg/kg/injection, schedule: Q01DX009 (ip), vehicle: saline with Tween-80.
The mark [3] stands for this setting: dose: 100.0 mg/kg/injection, schedule: Q04DX003 (ip), vehicle: saline with Tween-80.
Where [4] appears, read: dose: 200.0 mg/kg/injection, schedule: Q04DX003 (ip), vehicle: saline with Tween-80.
Where [5] appears, read: dose: 100.0 mg/kg/injection, schedule: Q01DX001 (ip), vehicle: saline.
The mark [6] stands for this setting: dose: 200.0 mg/kg/injection, schedule: Q01DX001 (ip), vehicle: saline.
The mark [7] stands for this setting: dose: 100.0 mg/kg/injection, schedule: Q01DX009 (ip), vehicle: Klucel (hydroxypropylcellulose) (HPC).
Where [8] appears, read: dose: 100.0 mg/kg/injection, schedule: Q04DX003 (ip), vehicle: Klucel (hydroxypropylcellulose) (HPC).
Where [9] appears, read: dose: 200.0 mg/kg/injection, schedule: Q04DX003 (ip), vehicle: Klucel (hydroxypropylcellulose) (HPC).
Setting [10] is: dose: 75.0 mg/kg/injection, schedule: Q01DX001 (ip), vehicle: saline.
Setting [11] is: dose: 150.0 mg/kg/injection, schedule: Q01DX001 (ip), vehicle: saline.
Where [12] appears, read: dose: 400.0 mg/kg/injection, schedule: Q01DX001 (ip), vehicle: saline.
Setting [13] is: dose: 5.0 mg/kg/injection, schedule: Q01DX001 (ip), vehicle: saline.
[14] abbreviates: dose: 10.0 mg/kg/injection, schedule: Q01DX001 (ip), vehicle: saline.
The mark [15] stands for this setting: dose: 100.0 mg/kg/injection, schedule: Q04DX003 (ip), vehicle: saline.
Setting [16] is: dose: 200.0 mg/kg/injection, schedule: Q01DX009 (ip), vehicle: Klucel (hydroxypropylcellulose) (HPC).
Setting [17] is: dose: 200.0 mg/kg/injection, schedule: Q04DX003 (ip), vehicle: saline.
Where [18] appears, read: dose: 400.0 mg/kg/injection, schedule: Q01DX009 (ip), vehicle: Klucel (hydroxypropylcellulose) (HPC).
Where [19] appears, read: dose: 400.0 mg/kg/injection, schedule: Q04DX003 (ip), vehicle: Klucel (hydroxypropylcellulose) (HPC).
[20] abbreviates: dose: 400.0 mg/kg/injection, schedule: Q04DX003 (ip), vehicle: saline.

Consider `Cc1[o+]c(C)c2c(c1C)-c1ccccc1C2=O`, for which the T/C under setting [1] is 93 % of control; the T/C under setting [2] is 96 % of control; the T/C under setting [3] is 98 % of control; the T/C (dose: 200.0 mg/kg/injection, schedule: Q01DX009 (ip), vehicle: saline with Tween-80) was 105 % of control; the T/C under setting [4] was 98 % of control; the T/C (dose: 400.0 mg/kg/injection, schedule: Q04DX003 (ip), vehicle: saline with Tween-80) is 98 % of control.
As for `CCN(CC)CCNC(=O)c1cc(N2CCOCC2)ccn1`, the T/C under setting [5] is 108 % of control and the T/C under setting [6] was 102 % of control.
In the case of `N#CCN1CCCN(CC#N)C1`, the T/C reads like this: (dose: 25.0 mg/kg/injection, schedule: Q01DX009 (ip), vehicle: Klucel (hydroxypropylcellulose) (HPC)) 96 % of control; (dose: 50.0 mg/kg/injection, schedule: Q01DX009 (ip), vehicle: Klucel (hydroxypropylcellulose) (HPC)) 115 % of control; under setting [7], 88 % of control and 91 % of control; under setting [8], 92 % of control; under setting [9], 103 % of control.
Take `O=C(Nc1ccccc1C(F)(F)F)OCC1CCCO1` (centres undefined): the T/C is 109 % of control (dose: 100.0 mg/kg/injection, schedule: Q01DX009 (ip), vehicle: gum acacia); 95 % of control (dose: 200.0 mg/kg/injection, schedule: Q01DX009 (ip), vehicle: gum acacia); 100 % of control (dose: 400.0 mg/kg/injection, schedule: Q01DX009 (ip), vehicle: gum acacia).
In the case of `Cc1ccc(-n2c(=S)[nH]c3ccccc3c2=O)cc1`, the T/C (dose: 25.0 mg/kg/injection, schedule: Q01DX009 (ip), vehicle: saline with Tween-80) is 92 % of control; the T/C under setting [1] is 90 % of control; the T/C under setting [2] was 87 % of control.
For the molecule `Nc1ccc2c(c1)C(=O)c1cc([N+](=O)[O-])ccc1-2`, the T/C (dose: 25.0 mg/kg/injection, schedule: Q01DX001 (ip), vehicle: Klucel (hydroxypropylcellulose) (HPC)) is 97 % of control; the T/C (dose: 50.0 mg/kg/injection, schedule: Q01DX001 (ip), vehicle: Klucel (hydroxypropylcellulose) (HPC)) is 90 % of control; the T/C (dose: 100.0 mg/kg/injection, schedule: Q01DX001 (ip), vehicle: Klucel (hydroxypropylcellulose) (HPC)) was 94 % of control.
Take `COc1cc(N=C(N)N=C(N)N)c2ncccc2c1`: the T/C (dose: 75.0 mg/kg/injection, schedule: Q01DX001 (ip), vehicle: carboxymethylcellulose (CMC)) is 97 % of control.
On to `CC(C)Cc1ccc(C(C)C(=O)O)cc1` (centres undefined), for which the T/C by setting is: under setting [5], 100 % of control; under setting [6], 92 % of control.
Consider `c1ccc([P+](c2ccccc2)(c2ccccc2)C2OCCO2)cc1`, for which the T/C reads like this: (dose: 25.0 mg/kg/injection, schedule: Q04DX003 (ip), vehicle: saline with Tween-80) 95 % of control; (dose: 50.0 mg/kg/injection, schedule: Q04DX003 (ip), vehicle: saline with Tween-80) 103 % of control.
`COc1ccc(Nc2ccc(OC)cc2C(=O)O)cc1`: the T/C was 102 % of control under setting [10]; 89 % of control (dose: 75.0 mg/kg/injection, schedule: Q01DX009 (ip), vehicle: saline); 102 % of control under setting [11]; 104 % of control (dose: 150.0 mg/kg/injection, schedule: Q01DX009 (ip), vehicle: saline); 104 % of control (dose: 300.0 mg/kg/injection, schedule: Q01DX001 (ip), vehicle: saline); 101 % of control (dose: 300.0 mg/kg/injection, schedule: Q01DX009 (ip), vehicle: saline).
In the case of `CCSC(=O)OCn1ncc2cc([N+](=O)[O-])ccc21`, the T/C reads like this: under setting [5], 112 % of control; under setting [6], 91 % of control; under setting [12], 103 % of control.
Take `COC(=O)/C=C(\C(=O)OC)n1ccccc1=O`: the T/C by setting is: under setting [13], 101 % of control; under setting [14], 98 % of control; (dose: 20.0 mg/kg/injection, schedule: Q01DX001 (ip), vehicle: saline) 95 % of control; (dose: 40.0 mg/kg/injection, schedule: Q01DX001 (ip), vehicle: saline) 102 % of control.
For the molecule `CCSC(SCC)C(O)C(O)C(O)C(O)CO` (centres undefined), the T/C was 101 % of control and 98 % of control under setting [7]; 101 % of control and 92 % of control under setting [8]; 101 % of control under setting [15]; 106 % of control and 97 % of control under setting [16]; 101 % of control and 95 % of control under setting [9]; 93 % of control under setting [17]. The T/C is 114 % of control and 97 % of control under setting [18]; 101 % of control and 92 % of control under setting [19]; 92 % of control under setting [20].
With `CCOP(=O)(Cc1ccccc1)OCC`, the T/C under setting [15] was 110 % of control, the T/C under setting [17] is 103 % of control and the T/C under setting [20] is 98 % of control.
Regarding `CCCCNc1cc(Nc2ccc(Br)cc2)nc(N)n1`, the T/C was 102 % of control under setting [5] and 98 % of control under setting [6].
As for `N=C(N)SCCC(=O)O`, the T/C by setting is: (dose: 100.0 mg/kg/injection, schedule: Q01DX009 (ip), vehicle: saline) 100 % of control; under setting [15], 90 % of control; (dose: 200.0 mg/kg/injection, schedule: Q01DX009 (ip), vehicle: saline) 110 % of control; under setting [17], 96 % of control; (dose: 400.0 mg/kg/injection, schedule: Q01DX009 (ip), vehicle: saline) 115 % of control; under setting [20], 95 % of control.
On to `C=C1C(=O)OC2C1CCC(C)=C1C(=O)C=C(C)C12` (centres undefined), for which the T/C is, setting by setting: (dose: 100.0 mg/kg/injection, schedule: Q04DX002 (ip), vehicle: saline) 94 % of control; (dose: 200.0 mg/kg/injection, schedule: Q04DX002 (ip), vehicle: saline) 97 % of control.
`C=CCNC(=O)C1C2C=CC(C2)C1C(=O)NCC=C` (centres undefined): the T/C is 103 % of control under setting [3] and 103 % of control under setting [4].
Turning to `CN1C2CCCCC1CC(=O)NC2` (centres undefined), the T/C is 98 % of control under setting [10] and 101 % of control under setting [11].
For the molecule `O=C(NCc1ccc(Cl)c(Cl)c1)Nc1ccccc1F`, the T/C under setting [7] was 101 % of control; the T/C (dose: 100.0 mg/kg/injection, schedule: Q04DX002 (ip), vehicle: Klucel (hydroxypropylcellulose) (HPC)) was 102 % of control; the T/C under setting [16] was 104 % of control; the T/C (dose: 200.0 mg/kg/injection, schedule: Q04DX002 (ip), vehicle: Klucel (hydroxypropylcellulose) (HPC)) is 105 % of control; the T/C under setting [18] was 101 % of control; the T/C (dose: 400.0 mg/kg/injection, schedule: Q04DX002 (ip), vehicle: Klucel (hydroxypropylcellulose) (HPC)) is 97 % of control.
`NNc1n[nH]c(=O)[nH]c1=O`: the T/C by setting is: under setting [5], 102 % of control; under setting [6], 96 % of control; under setting [12], 96 % of control.
As to `CCCCCCC(O)CCc1ccccc1` (centres undefined), the T/C reads like this: under setting [7], 103 % of control; under setting [16], 102 % of control; under setting [18], 113 % of control.
Take `Nc1nc(N)c(-c2ccc(Cl)c(Cl)c2)c(COc2ccc(NC(=O)Nc3ccc(S(=O)(=O)F)c(Cl)c3)c(Cl)c2)n1`: the T/C reads like this: (dose: 75.0 mg/kg/injection, schedule: Q01DX001 (ip), vehicle: saline with Tween-80) 90 % of control; (dose: 150.0 mg/kg/injection, schedule: Q01DX001 (ip), vehicle: saline with Tween-80) 98 % of control.
As to `COc1ccc(OC)c(NC(=O)N(CCO)C2CCCCC2)c1`, the T/C was 90 % of control under setting [8] and 97 % of control under setting [19].
Take `COC(=O)C(N)Cc1ccc(O)c(N(CCCl)CCCl)c1` (centres undefined): the T/C by setting is: (dose: 0.01 mg/kg/injection, schedule: Q01DX009 (ip), vehicle: saline) 116 % of control; (dose: 0.25 mg/kg/injection, schedule: Q01DX009 (ip), vehicle: saline) 205 % of control; (dose: 0.5 mg/kg/injection, schedule: Q01DX009 (ip), vehicle: saline) 204 % of control; (dose: 1.0 mg/kg/injection, schedule: Q01DX009 (ip), vehicle: saline) 194 % of control; (dose: 2.5 mg/kg/injection, schedule: Q01DX001 (ip), vehicle: saline) 116 % of control; under setting [13], 168 % of control. The T/C under setting [14] is 213 % of control.
